This is an account of results in the METLIN SMRT retention time set (Domingo-Almenara et al. 2019).

Each structure is given as a SMILES string.

A short description of the series: gradient 5% acetonitrile 3 min, to 50% in 2 min, to 85% in 15 min, held 3 min, 100 µL/min. The following applies: column: Zorbax Extend-C18 2.1 x 50 mm; eluents: water / acetonitrile, 0.1% formic acid. A digest of the protocol:
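Mixtures of ~100 pure standards were chromatographed on a Zorbax Extend-C18 column (2.1 × 50 mm, 1.8 μm) at 100 μL/min using water and acetonitrile, each with 0.1% formic acid. Detection used a quadrupole time-of-flight mass spectrometer in positive and negative ionization mode, and data collection spanned 3 months. Retention time was obtained from adduct peaks picked computationally and each checked manually.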
The compound `CCOc1ccc(OCC)c(NC(=O)C2CCN(c3nccnc3Sc3ccc(C)cc3)CC2)c1` displayed an RP-LC retention time of 1380 s.

In turn, `CC(NC(=O)c1cc(=O)[nH]c2ccc(Br)cc12)c1ccccc1` (configuration not stated) came in with an RP-LC retention time of 769 s.

In turn, `Cn1cnc(S(=O)(=O)N2CC(Oc3ccc(-c4nc(-c5ccccc5)no4)cc3)C2)c1` returned an RP-LC retention time of 983 s.

As to `O=C(NCCN1CCCCC1)C1CCN(c2nccnc2Sc2ccccc2)CC1`, the RP-LC retention time was determined as 666 s.

In turn, `Cc1ccc(Nc2c(-c3ccc(Br)cc3)nc3cnccn23)cc1Cl` displayed an RP-LC retention time of 1180 s.

For `O=C(Nc1ccc2c(c1)OCCO2)N1CCCC1c1nc(CCOCC2CCCC2)no1` (configuration not stated), the RP-LC retention time was 896 s.

Take `COc1cccc(OC)c1CN1CC(n2cnnc2-c2cccnc2)C1`: the RP-LC retention time worked out at 548 s.

Regarding `Cc1ccc(Cl)cc1N1C(=O)CN(S(C)(=O)=O)CC1(C)C(=O)NC1CCCC1` (configuration not stated), the RP-LC retention time was determined as 838 s.

Compound `CC(C)CC(=O)Nc1nc(-c2ccc3ccccc3c2)cs1` displayed an RP-LC retention time of 1140 s.

Turning to `Cc1ccc(-c2csc(NC(=O)CCCc3nc(-c4ccc(Cl)cc4)no3)n2)cc1`, the RP-LC retention time came out at 1240 s.

`CC(C)NC(=O)C1COC2(CCN(C(=O)c3cccc(Cl)c3)CC2)N1C(=O)c1ccccc1` (configuration not stated) had an RP-LC retention time of 725 s.

With `Cc1nc2c(sc3nc(-c4ccccc4)ccc32)c(=O)n1CC(=O)NCc1ccc(F)cc1`, the RP-LC retention time is 994 s.

With `Cc1nc2c(sc3cccc(F)c32)c(=O)n1CC(=O)Nc1ccccc1C(F)(F)F`, the RP-LC retention time is 841 s.

Compound `Cc1ccc(C(=O)NCc2nc(-c3ccc4c(c3)ncn4C3CCCC3)no2)cc1` registered an RP-LC retention time of 719 s.

Take `CCN1CCN(C2=NCCN2C(=O)c2ccccc2Br)CC1`: the RP-LC retention time was determined as 898 s.

Regarding `Cc1ccc(-n2c(N3CCCC(C(=O)NCCCc4ccccc4)C3)nc3ccsc3c2=O)cc1` (configuration not stated), the RP-LC retention time was determined as 987 s.

Take `Cc1ccc(N2N=NC3C(=O)N(c4ccccc4)C(=O)C32)cc1C` (configuration not stated): the RP-LC retention time came out at 1010 s.

`Cc1cccc(N2CCN(C(=O)CC3COc4ccccc4NC3=O)CC2)c1C` (configuration not stated) came in with an RP-LC retention time of 861 s.

The compound `Cc1cc(NC(=O)N(C)CC2CCOCC2)ccc1Br` returned an RP-LC retention time of 819 s.

`COC(=O)c1ncn2c1C(=O)N(Cc1ccc(F)cc1)C(C)(C(=O)NC1CCCCC1)C2` (configuration not stated) gave an RP-LC retention time of 752 s.

`Cc1ccc(C)c(-c2nc(NC(=O)c3cc(C)on3)sc2C)c1` displayed an RP-LC retention time of 1110 s.

On to `O=C(Cc1ccc(NC(=O)c2cc(=O)c3ccccc3o2)cc1)NCc1cccs1`, for which the RP-LC retention time was found to be 739 s.

`CCc1cccc(NC(=O)c2cn(CC)nc2S(=O)(=O)N2CCSCC2)c1` returned an RP-LC retention time of 1080 s.

For `CN1c2cc(F)ccc2C(=O)NC12CCN(C(=O)c1ccc(F)c(Cl)c1)CC2`, the RP-LC retention time amounted to 823 s.

`Cn1ccc2cc(S(=O)(=O)N3CCCC(C(=O)NCCCN4CCOCC4)C3)ccc21` (configuration not stated): the RP-LC retention time is 627 s.

For the compound `COc1ccc(-c2oc3c(CC=C(C)C)c(OC4O[C@H](CO)[C@@H](O)[C@H](O)[C@H]4O)cc(O)c3c(=O)c2OC2O[C@@H](C)[C@H](O)[C@@H](O)[C@H]2O)cc1` (some centres not stated), the RP-LC retention time stood at 669 s.

As to `COc1cccc2cc(-c3ccc(OCC(=O)N4CCC(C(N)=O)CC4)cc3)c(=O)oc12`, the RP-LC retention time was determined as 672 s.

In turn, `Cc1ccc(C)c(CS(=O)(=O)N2CCc3nc(-c4ccc(F)cc4)ncc3C2)c1` yielded an RP-LC retention time of 1160 s.

As for `Cc1c(C(=O)N2CCCC2)cc(-c2ccc(F)cc2)n1C`, the RP-LC retention time was found to be 889 s.

On to `CCOC(=O)Cc1ccc(NC(=O)N2CCC3(CC2)NC(=O)c2ccccc2O3)cc1`, for which the RP-LC retention time was found to be 761 s.

For the compound `CCCN(C(=O)Cc1ccc(OC)cc1)c1nc(-c2ccccc2)cs1`, the RP-LC retention time was 1420 s.

`O=C(C1CN(S(=O)(=O)c2ccccc2)CC12CCCCC2)N1CCOCC1` (configuration not stated) gave an RP-LC retention time of 840 s.

In turn, `COc1ccc2[nH]cc(CCNC(=O)c3cc(S(=O)(=O)N4CCSCC4)ccc3Cl)c2c1` returned an RP-LC retention time of 880 s.

Turning to `O=C(Cc1ccccc1Cl)Nc1cc(N2CCOCC2)ncn1`, the RP-LC retention time came out at 635 s.

`CN(C)c1cccc(C(=O)N2CCc3nc[nH]c3C2)c1` gave an RP-LC retention time of 578 s.

For the compound `CCCn1nc(CNC(=O)c2cnccn2)c2ccccc21`, the RP-LC retention time stood at 765 s.

As to `O=C(C1=NN(Cc2ccccc2)c2ccccc2S1(=O)=O)N1CCCC1`, the RP-LC retention time stood at 784 s.

As to `Cc1ccc(NC(=O)N2CCC(N3CCN(Cc4ccccc4)C(=O)C3=O)CC2)cc1Cl`, the RP-LC retention time turned out to be 809 s.

As to `Cn1nc(CN2CCOCC2)c2c1CCN(S(=O)(=O)c1cc(F)cc(F)c1)C2`, the RP-LC retention time is 642 s.

With `Cc1nc2cc(N3CCCC(C(=O)NCCN4CCOCC4)C3)cnc2nc1C` (configuration not stated), the RP-LC retention time is 557 s.

With `Cc1ccc(NC(=O)C2CCN(C(=O)c3ncn4c3COC(c3ccc(F)cc3)C4)CC2)c(C)c1` (configuration not stated), the RP-LC retention time stood at 832 s.

On to `COc1ccc(C(=O)NC2CCN(c3cc(-c4ccc(OC)cc4)[nH]n3)C2)cc1` (configuration not stated), for which the RP-LC retention time came out at 706 s.

`N#Cc1ccc(C(=O)Nc2cnn(-c3ncc(N4CCCCC4)cn3)c2)cc1` had an RP-LC retention time of 848 s.

`COC(=O)c1ccc(NC(=O)Cn2cccc(-c3nc(-c4ccc(OC)c(OC)c4)no3)c2=O)cc1`: the RP-LC retention time worked out at 1010 s.

Compound `CC(C)Cn1cc(CCNC(=O)c2ccccc2C(F)(F)F)c2cccnc21` showed an RP-LC retention time of 854 s.

Compound `N#Cc1ccc(NC(=O)Cc2csc3nc(-c4ccccc4)cn23)cc1` came in with an RP-LC retention time of 763 s.

With `O=C(C1CC(=O)N(c2ccc3c(c2)CCN3C(=O)C2CC2)C1)N1CCOCC1` (configuration not stated), the RP-LC retention time worked out at 634 s.

Turning to `Cn1ncc2c(N3CCOCC3)nc(C(=O)NCc3cccs3)nc21`, the RP-LC retention time was 686 s.

Compound `COc1cc(NC(=O)N2CCCC(C)(C(=O)NCc3ccc(F)cc3)C2)cc(OC)c1OC` (configuration not stated) returned an RP-LC retention time of 778 s.

Compound `O=C(c1cn2nc(Cl)ccc2n1)N1CCN(c2ccc(Cl)cc2)CC1` returned an RP-LC retention time of 858 s.

For `Clc1ccccc1-c1noc(Cc2nc(-c3ccc4c(c3)OCO4)cs2)n1`, the RP-LC retention time was 1140 s.

Compound `CCN1CCn2cc(S(=O)(=O)Nc3ccc(C)cc3F)cc2C1=O` had an RP-LC retention time of 725 s.

In turn, `N#Cc1cccc(NC(=O)Cn2cccc(-c3nc(-c4ccccc4)no3)c2=O)c1` displayed an RP-LC retention time of 828 s.

The compound `CC(C)NC(=O)Cn1cnc2nc(N3CCC(C(=O)NC4CC4)CC3)sc2c1=O` registered an RP-LC retention time of 1060 s.

As to `Cc1ccc(CN(Cc2ccc(-c3ccccc3S(=O)(=O)NC#N)cc2)C(=O)c2ccccc2Cl)cc1`, the RP-LC retention time came to 1060 s.

For the compound `O=C(c1cccs1)N1CCN(c2ccc(=O)n(-c3ccc(Cl)cc3)n2)CC1`, the RP-LC retention time came to 834 s.

On to `CC1(C)CC(=O)c2cn(-c3ccccc3)c(=O)c(C(=O)NCc3cccs3)c2C1`, for which the RP-LC retention time was 924 s.

Turning to `CC1(C(=O)NCc2ccccc2)CN(S(=O)(=O)c2ccccc2)CC(=O)N1C1CCCCC1` (configuration not stated), the RP-LC retention time was 992 s.

Turning to `OCCNCc1ccc(-c2cccc(Cl)c2)o1`, the RP-LC retention time was determined as 987 s.

`Cc1ccccc1OCC(=O)NCCN1CCN(S(C)(=O)=O)CC1` registered an RP-LC retention time of 558 s.

`Cc1cccc(NC(=O)C2CCN(c3nnc4cccc(C)n34)CC2)c1` had an RP-LC retention time of 706 s.

`CCOc1cccc(-c2noc(Cc3nnc(-c4ccc(C)c(F)c4)o3)n2)c1`: the RP-LC retention time stood at 1160 s.

In turn, `CNC(=O)Cc1csc(NC(=O)c2csc(Nc3cccc(C)n3)n2)n1` displayed an RP-LC retention time of 711 s.

`Cc1ccc(-c2nc3cnccn3c2Nc2ccc(C)cc2Br)cc1` returned an RP-LC retention time of 1140 s.

Compound `CCOc1ccc(Cc2nc(-c3ccc4c(c3)oc(=O)n4C)no2)cc1OCC` registered an RP-LC retention time of 976 s.

With `COCCN1C(=O)CCc2c(C)nc(-c3cccnc3)nc21`, the RP-LC retention time turned out to be 614 s.

`CCN(CC)c1ccc(/C=C2\SC(=O)NC2=O)cc1` displayed an RP-LC retention time of 876 s.

`COCc1cc2nn(CC(=O)Nc3ccc(C)cc3)c(=O)n2c(-c2ccccc2)n1`: the RP-LC retention time amounted to 838 s.

`CCSc1nnc(NC(=O)c2cc(=O)c(OCc3ccc(F)cc3)co2)s1` registered an RP-LC retention time of 791 s.

Compound `Cc1cc(C)c2sc(N(CCCn3ccnc3)C(=O)C3COc4ccccc4O3)nc2c1` (configuration not stated) registered an RP-LC retention time of 667 s.

As to `Cc1cc(=O)n(CC(=O)Nc2ccc(C(C)C)cc2)c(N2CCOCC2)n1`, the RP-LC retention time amounted to 774 s.

`COc1cc(-c2noc(CN3C(=O)C(C)Oc4ccccc43)n2)cc(OC)c1OC` (configuration not stated) had an RP-LC retention time of 980 s.

In turn, `O=C(Nc1nc(-c2ccc3ccccc3c2)cs1)c1cccc(Cn2cc(Cl)cn2)c1` had an RP-LC retention time of 1140 s.

Regarding `CC(C)OC(=O)COC(=O)c1cn(-c2cccc(Cl)c2)c(=O)c2ccccc12`, the RP-LC retention time was 1140 s.

In turn, `O=C(NCCCN1CCOCC1)c1ccc2c(c1)N(C(=O)c1ccc(F)cc1)CC2` displayed an RP-LC retention time of 615 s.

`CCNC(=O)C1CCCN(c2nc3ncn(CC(=O)Nc4cc(F)cc(F)c4)c(=O)c3s2)C1` (configuration not stated) displayed an RP-LC retention time of 688 s.

In turn, `O=C(Cc1ccccc1F)Nc1ccc(-c2cn3c(C(=O)N4CCCC4)csc3n2)cc1` displayed an RP-LC retention time of 791 s.
